Results reported in patent US20090029856A1, “Hinokitiol As A Plant Pesticide” (priority 2007, published 2009).
Values after ≈ are worked out from the molar mass of the structure shown. Values joined by “and” are separate entries in the source; they are usually repeats but may differ in a detail not shown here. Equal values may be shown once.

Tests used:
[1] = tested on: Lactuca sativa (lettuce) seedlings; experiment: High-throughput 96-well post-emergence herbicide assay; format: in vivo
Description: A high-throughput 96-well assay was used to test the efficacy of hinokitiol as a post-emergence, non-selective herbicide. Seedlings of Lactuca sativa (lettuce) were grown in 96-well plates under continuous light. Hinokitiol was added on the one-week old seedlings at a 5×-dilution series from 1 to 0 mg/mL, and the minimum concentration needed for killing the seedling was recorded the next day.

[2] = tested on: grey mold (Botrytis cinerea); experiment: In vivo greenhouse test on green bell pepper (Capsicum annuum) against grey mold; conditions: for Average (mean) disease rating, 2 days / Average (mean) disease rating, 3 days / Average (mean) disease rating, 7 days: mean of 3 replicates; for rating at day 3 / rating at day 7 / rating at day 2: single replicates
Description: To further test the inhibitory effect of hinokitiol on grey mold (Botrytis cinerea), an in vivo test on green bell pepper (Capsicum annuum) was conducted in a greenhouse. Pepper plants at a 6-true-leaf growth stage were sprayed with hinokitiol in 50% ethanol. The stock solution (5 mg/mL) was prepared in 97% ethanol, and diluted to following concentrations: 0, 0.01, 0.1 mg/mL. To compare the efficacy of hinokitiol in an alcohol-free solution, a treatment with 0.1 mg/mL of hinokitiol in water was included in this study. Pepper plants with no treatment were used as controls. All treatments were carried out in 3 replicates. After treatment with hinokitiol, the leaf surfaces were allowed to dry under the growth lights, after which the plants were inoculated with a B. cinerea spore solution containing 2×10^6 spores per mL. Inoculated plants were incubated in the dark in a covered flat at 22° C. […] Symptoms were rated on a scale of 0-5; 0 indicating no lesions on leaves, and 5 indicating severe rotting/dead plant.

Botrytis cinerea = experiment: Spiral gradient dilution method, inhibition of mycelial growth and spore germination; format: cell-based
Description: In this method, a potato dextrose agar (PDA) medium is plated with the test solution by means of a spiral plater, which applies the compound in a 2.5-log dilution in a continuous radial concentration gradient. Fungal inoculum in two replicates is then placed along radial lines across the gradient. […] EC50 values were calculated based on these measurements. The fungi evaluated were members of the following families Anamorphic Phyllachoraceae (Colletotrichum acutatum), Anamorphic Sclerotiniaceae (Botrytis cinerea), Mitosporic fungi (Verticillium dahlias; Microphomina sp.), and Oomycota (Phytophtora capsici). Hinokitiol (5 mg/mL) was dissolved in acetone, and acetone alone was also used as a control to check for non-specific inhibition.

Botrytis gray mold = Botrytis gray mold on pepper plants, formulation applied pre and post infection; format: in vivo
Description: Pepper plants (California Wonder Bell Pepper) were treated with a 3.2% Hinokitiol formulation containing propylene glycol, nonphytotoxic ethoxylate fatty esters; butanol, EDTA, UV protection agent, 1% of a 15% solution of sodium hydroxide and water 3 hours before and 24 hours after inoculation (pre and post infection, respectively). Hinokitiol concentration in pre-infection application was 1.0% v/v and for post-infection application was 2.0% v/v. Three plants were included per treatment in pre-infection applications, and 18 plants in post-infection treatments. The formulation employed contained 3.2% of active ingredient. Inoculation was performed with a conidial suspension of 1.8×10^6 conidia per ml of 75% PDB (Potato Dextrose Broth). Scale of evaluation was 0=no infection, 1=Small scattered lesions, 2=Scattered big lesions or small ones covering more than 50% of leaf surface, 3=Half plant dead, 4=75% of the plant dead, 5=Entire plant dead. Evaluation was performed 3 days after inoculation.

Fusarium sp (FUSM) = experiment: Spiral plating method, growth inhibition; format: cell-based; conditions: average distance of inhibition / 28 mm × 100
Description: (§1) The spiral plating method was used to deposit the fungicides on PDA and TSA plates with exponential logarithmic decrease of product concentration from the centre to the edge of the plate. The plates were left standing for four hours and inoculated with the fungus and bacteria. There were four repetitions of the same microorganism done per plate and there was one replica of each plate.
(§2) The plates were cultured for 3 days before measurements of growth were taken. The ‘distance of inhibition’ indicates the length of the zone with no growth, measured from center edge of the agar, the ‘colony width ratio’ indicates the ratio of the width of growth measured at the zero concentration and width at the highest concentration with growth.

[3] = tested on: Monilinia fructicola (MON); experiment: Spiral plating method, growth inhibition; format: cell-based; conditions: M. fructicola; average distance of inhibition / 28 mm × 100
Description: as §1, §2

[4] = tested on: Pseudomonas viridilivida (PSVI); experiment: Spiral plating method, growth inhibition; format: cell-based; conditions: P. viridilivida
Description: as §1, §2

[5] = tested on: Xanthomonas campestris (X-CAM); experiment: Spiral plating method, growth inhibition; format: cell-based; conditions: average distance of inhibition / 28 mm × 100
Description: as §1, §2

Botrytis cinerea (BOT) = experiment: Spiral plating method, growth inhibition; format: cell-based; conditions: B. cinerea
Description: as §1, §2

[6] = tested on: Erwinia carotovora (ERWC); experiment: Spiral plating method, growth inhibition; format: cell-based; conditions: E. carotovora; average distance of inhibition / 28 mm × 100
Description: as §1, §2

[7] = tested on: Lactuca sativa (lettuce) seeds; experiment: 96-well seed germination inhibition screen; format: in vivo; conditions: single lettuce seed per well, 50 μL solution, 5× dilution series
Description: Numerous natural compounds were screened for their ability to inhibit the germination of dicot (broadleaved weed) seeds. A single seed of Lactuca sativa (lettuce) was placed in each well of a 96-well plate followed by 50 μL of a solution of each compound in a stepwise (5×) dilution series from 25% to 0%. Germination was monitored daily. Based on this screening study, the threshold value for hinokitiol to inhibit germination of seeds was determined at 0.32 mg/L.

[8] = 0.01 mg/mL in 50% ethanol, scale 0-5
[9] = 0.1 mg/mL in 50% ethanol, scale 0-5

Q: What does the source list for `CC(C)c1cccc(=O)c(O)c1` [Hinokitiol, 4-isopropyl tropolone]?
A: effect on lettuce seedlings ([1]; concentration of 8 mg/L): not harmful to the plant; minimum concentration needed for killing the seedling ([1]; one-week old lettuce seedlings, recorded the next day): 40 mg/L; Average (mean) disease rating, 2 days ([2]; 0.01 mg/mL EtOH, scale 0-5): 1.7 a; Average (mean) disease rating, 3 days ([2]; 0.01 mg/mL EtOH, scale 0-5): 2.7 ab; Average (mean) disease rating, 7 days ([2]; 0.01 mg/mL EtOH, scale 0-5): 3.0 ab; rating at day 3 [2, 8]: 4 and 3 and 1; rating at day 7 [2, 8]: 5 and 3 and 1; rating at day 2 ([2]; 0.01 mg/mL in 50% ethanol, scale 0-5 (0 no lesions, 5 severe rotting/dead plant)): 2 (2×) and 1; Average (mean) disease rating, 2 days ([2]; 0.1 mg/mL EtOH, scale 0-5): 1.7 a; Average (mean) disease rating, 3 days ([2]; 0.1 mg/mL EtOH, scale 0-5): 2.7 ab; Average (mean) disease rating, 7 days ([2]; 0.1 mg/mL EtOH, scale 0-5): 4.0 ab; Average (mean) disease rating, 2 days ([2]; 0.1 mg/mL H2O, scale 0-5): 0.3 b; Average (mean) disease rating, 3 days ([2]; 0.1 mg/mL H2O, scale 0-5): 0.7 b; Average (mean) disease rating, 7 days ([2]; 0.1 mg/mL H2O, scale 0-5): 2.3 b; rating at day 2 [2, 9]: 2 (2×) and 1; rating at day 3 [2, 9]: 3 (2×) and 2; rating at day 7 [2, 9]: 5 (2×) and 2; rating at day 2 ([2]; 0.1 mg/mL in water, scale 0-5): 0 (2×) and 1; rating at day 3 ([2]; 0.1 mg/mL in water, scale 0-5): 0 and 1 (2×); rating at day 7 ([2]; 0.1 mg/mL in water, scale 0-5): 1 and 2 and 4; incidence of B. cinerea compared with untreated control pepper plants ([2]; 0.1 mg/mL water): significantly lower; disease outbreak and final disease incidence compared with untreated control ([2]; dissolved in ethanol at 0.01 and 0.1 mg/mL): postponed the disease outbreak but the final disease incidence was not significantly different from the untreated control; inhibition in spore germination (Botrytis cinerea; B. cinerea, hinokitiol at concentrations 5-0.05 mg/mL, light microscope): 100%; EC50 (Botrytis cinerea; Botrytis cinerea, PDA, 20° C., hinokitiol in acetone): 31 µg/mL (≈ 189 µM); number of pepper plants at scale of infection 2 (Botrytis gray mold; 0.64 mg/ml, 24 hr after inoculation, of 18 plants per rep): 12 and 7; number of pepper plants at scale of infection 4 (Botrytis gray mold; 0.64 mg/ml, 24 hr after inoculation, of 18 plants per rep, 4 = 75% of the plant dead): 1 and 2; intensity of disease (scale of severity 0-5), single plants (Botrytis gray mold; 3.2% hinokitiol formulation at 1.0% v/v (0.32 mg/ml), applied 3 hr before inoculation, evaluated 3 days after inoculation, 1 = small scattered lesions, 5 = entire plant dead): 1; visible symptoms of disease or phytotoxicity on pepper plants (Botrytis gray mold; hinokitiol formulation at 1% (0.32 mg/ml) dilution): did not show any visible syptoms of disease or phytotocicity; % inhibition of growth (Fusarium sp (FUSM)): 32%; % inhibition of growth [3]: 48%; inhibition of growth [4]: did not inhibit; % inhibition of growth [5]: 83%; inhibition of growth (Botrytis cinerea (BOT)): did not inhibit; % inhibition of growth [6]: 62%; threshold value to inhibit germination of seeds [7]: 0.32 mg/L
